Laboratory results taken from BindingDB's records for doi:10.1021/jm000956k (Glaxowellcome, 2001).

Experiments:
[1] = molecular target: 5-hydroxytryptamine receptor 2A (Oryctolagus cuniculus); assay: Binding affinity against rabbit aorta 5-HT2A receptor
[2] = molecular target: 5-hydroxytryptamine receptor 1D (Bos taurus); assay: Binding affinity against calf caudate 5-hydroxytryptamine 1D receptor
[3] = molecular target: 5-hydroxytryptamine receptor 2C (Cavia porcellus); assay: Binding affinity against guinea pig cortex 5-HT2C receptor in the presence of [3H]mesulergine

- IC50 [1]: > 10 µM
- IC50 [2]: 89 nM
- IC50 [3]: > 10 µM
Structure (SMILES): CN(C)[C@H]1C[C@H](c2c[nH]c3ccc(CC4COC(=O)N4)cc32)C1 (stereo partly drawn)
